Experiment [1] concerns A. baumannii strain ATCC 19606. In words: Killing of A. baumannii ATCC 19606 by colistin with Apyrase Agent, CFU count. The class given is cell-based. The conditions noted are these: about 10^6 CFU/ml inoculum; Apyrase Agent 1 and 2 U/ml with colistin, or colistin alone at the same concentrations (0.25-2 μg/ml). On the procedure: Approximately 10^6 CFU/ml of A. baumannii strain ATCC 19606 is grown on solid medium culture plates in the presence of combinations of 0, 1, and 2 U/ml of Apyrase Agent and 0, 0.25, 0.5, 1, and 2 μg/ml of colistin. After incubation, the numbers of viable cells are determined by counting the colony forming units (CFU) on the plate (data provided as CFU/ml).
(§1) In this Example (and in subsequent Examples), the colistin is colistin sulfate salt, catalog number C4461 from Sigma-Aldrich (St. Louis, Mo.) and the apyrase is catalog number M0393L from New England BioLabs Inc. (Ipswich, Mass.).

In experiment [2] the test system is Burkholderia multivorans AU0801. Kind of experiment: Killing of Burkholderia multivorans AU0801 by colistin with Apyrase Agent, CFU count. The class given is cell-based. The conditions noted are these: colistin at less than 10 μg/ml, with Apyrase Agent 2 U/ml or alone. The procedure:
as §1
Burkholderia multivorans AU0801 is grown in the presence of combinations of 0 and 2 U/ml of Apyrase Agent and approximately 0 to 20 μg/ml of colistin. After incubation, the numbers of viable cells are determined by counting the colony forming units (CFU) on the plate (data provided as CFU/ml). Apyrase Agent improves the efficiency of killing Burkholderia multivorans AU0801 by colistin. Apyrase Agent increases the effectiveness of colistin at less than 10 μg/ml such that less than 10 to 100 CFU/ml are detected relative to greater than 10^5 to 10^6 in the presence of colistin alone at the same concentrations.

As for colistin sulfate salt, in experiment [1], the viable cell count entry is given as “approximately 10^5 CFU/ml”. The “numbers of viable cells (CFU)” value in experiment [2] is listed as 10^5 to 10^6 CFU/ml.

Values taken from US20170333532A1, “ADP'ASE-ENHANCED APYRASE THERAPY FOR WOUNDS, MICROBIAL INFECTION, SEPSIS, AND HETEROTOPIC OSSIFICATION” (APT THERAPEUTICS, INC, priority 2014, published 2017).
